Reference: PubChem BioAssay (NCI)
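Dose response: 5 concentrations. Exposure: 48 h. Format: 96-well plates. Endpoint: linear interpolation; highest concentration if not reached. TGI: concentration producing complete growth inhibition.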

Legend:
Test in all cases: DTP human tumour cell line panel, 48 h
[1] = tested on: KM20L2 colon
[2] = tested on: UACC-62 melanoma
[3] = tested on: MOLT-4 leukemia
[4] = tested on: ACHN renal
[5] = tested on: IGROV1 ovarian
[6] = tested on: OVCAR-3 ovarian
[7] = tested on: SF-295 CNS
[8] = tested on: SNB-19 CNS
[9] = tested on: SK-MEL-5 melanoma
[10] = tested on: SNB-78 CNS
[11] = tested on: OVCAR-8 ovarian
[12] = tested on: DLD-1 colon
[13] = tested on: MALME-3M melanoma
[14] = tested on: HOP-62 NSCLC
[15] = tested on: TK-10 renal
[16] = tested on: SK-OV-3 ovarian
[17] = tested on: SK-MEL-28 melanoma
[18] = tested on: HCT-116 colon
[19] = tested on: NCI-H522 lung
[20] = tested on: HCC-2998 colon
[21] = tested on: LOX IMVI melanoma
[22] = tested on: DMS 273 small cell lung
[23] = tested on: UO-31 renal
[24] = tested on: RXF-631 renal
[25] = tested on: 786-0 renal
[26] = tested on: SF-268 CNS
[27] = tested on: LXFL 529 NSCLC
[28] = tested on: HOP-92 NSCLC
[29] = tested on: A498 renal
[30] = tested on: M19-MEL melanoma
[31] = tested on: RXF 393 renal
[32] = tested on: RPMI-8226 leukemia
[33] = tested on: KM12 colon
[34] = tested on: DMS 114 small cell lung
[35] = tested on: HT29 colon
[36] = tested on: UACC-257 melanoma
[37] = tested on: M14 melanoma
[38] = tested on: SN12C renal
[39] = tested on: NCI-H23 lung
[40] = tested on: NCI-H460 lung
[41] = tested on: A549 NSCLC
[42] = tested on: SW-620 colon
[43] = tested on: OVCAR-5 ovarian
[44] = tested on: K-562 leukemia
[45] = tested on: OVCAR-4 ovarian
[46] = tested on: CAKI-1 renal
[47] = tested on: COLO 205 colon
[48] = tested on: HOP-18 NSCLC
[49] = tested on: SF-539 CNS
[50] = tested on: HL-60(TB) leukemia
[51] = tested on: NCI-H226 lung
[52] = tested on: U251 CNS
[53] = tested on: EKVX NSCLC
[54] = tested on: HCT-15 colon
[55] = tested on: CCRF-CEM leukemia
[56] = tested on: SNB-75 CNS
[57] = tested on: SK-MEL-2 melanoma
[58] = tested on: SR leukemia

With `Cc1cc(C)nc(NS(=O)(=O)c2ccc(NC(=O)c3ccc(Cl)c4c(Nc5ccc(S(=O)(=O)Nc6cc(C)on6)cc5)c5ccccc5nc34)cc2)n1` the TGI [1] was 32.6 µM, the TGI [2] was 32.3 µM and the TGI [3] was 70.9 µM. The TGI [4] was 36.1 µM, the TGI [5] was 37.3 µM and the TGI [6] was 30.4 µM. It also gave a TGI [7] of 32.7 µM, a TGI [8] of 30.8 µM and a TGI [9] of 30 µM. The TGI [10] was 37.2 µM, the TGI [11] was 30.9 µM and the TGI [12] was 31.6 µM. For the same compound, the TGI [13] was 40 µM, the TGI [14] was 30.6 µM and the TGI [15] was 32.3 µM. It also gave a TGI [16] of 35.9 µM, a TGI [17] of 32.9 µM and a TGI [18] of 39.9 µM. It also gave a TGI [19] of 31.8 µM, a TGI [20] of 33 µM and a TGI [21] of 30 µM. It also gave a TGI [22] of 31.9 µM, a TGI [23] of 31.7 µM and a TGI [24] of 33.7 µM. For the same compound, the TGI [25] was 30.9 µM, the TGI [26] was 28.9 µM and the TGI [27] was 30.7 µM. For the same compound, the TGI [28] was 30.3 µM, the TGI [29] was 29.1 µM and the TGI [30] was 39.7 µM. The TGI [31] was 28 µM, the TGI [32] was 50.3 µM and the TGI [33] was 33.7 µM. For the same compound, the TGI [34] was 32.6 µM, the TGI [35] was 35.8 µM and the TGI [36] was 32.2 µM. For the same compound, the TGI [37] was 36.3 µM, the TGI [38] was 36.5 µM and the TGI [39] was 29.7 µM. It also gave a TGI [40] of 36.3 µM, a TGI [41] of 40.7 µM and a TGI [42] of 33.1 µM. The TGI [43] was 35.7 µM, the TGI [44] was 68.5 µM and the TGI [45] was 30.7 µM. It also gave a TGI [46] of 29.5 µM, a TGI [47] of 32.3 µM and a TGI [48] of 29.2 µM. It also gave a TGI [49] of 34.6 µM, a TGI [50] of 27.2 µM and a TGI [51] of 32.9 µM. For the same compound, the TGI [52] was 28.9 µM and the TGI [53] was 33.9 µM.
`CC(=O)/C=C\C1CC2C=CC1C2` (stereo not given) showed a TGI [1] greater than 100 µM, a TGI [2] greater than 100 µM and a TGI [3] of 66.1 µM. For the same compound, the TGI [4] was greater than 100 µM, the TGI [5] was greater than 100 µM and the TGI [6] was greater than 100 µM. It also gave a TGI [7] greater than 100 µM, a TGI [8] greater than 100 µM and a TGI [9] greater than 100 µM. It also gave a TGI [10] of 73.5 µM, a TGI [11] greater than 100 µM and a TGI [12] greater than 100 µM. It also gave a TGI [13] greater than 100 µM, a TGI [54] greater than 100 µM and a TGI [14] greater than 100 µM. For the same compound, the TGI [15] was greater than 100 µM, the TGI [16] was greater than 100 µM and the TGI [18] was 54.5 µM. The TGI [55] was 70.3 µM, the TGI [20] was 73.2 µM and the TGI [21] was 65.4 µM. For the same compound, the TGI [22] was greater than 100 µM, the TGI [23] was greater than 100 µM and the TGI [24] was greater than 100 µM. It also gave a TGI [25] greater than 100 µM, a TGI [26] of 76.1 µM and a TGI [27] greater than 100 µM. For the same compound, the TGI [28] was 79.9 µM, the TGI [30] was greater than 100 µM and the TGI [31] was greater than 100 µM. For the same compound, the TGI [32] was greater than 100 µM, the TGI [33] was greater than 100 µM and the TGI [34] was 82.8 µM. For the same compound, the TGI [37] was greater than 100 µM, the TGI [38] was greater than 100 µM and the TGI [39] was greater than 100 µM. The TGI [40] was greater than 100 µM, the TGI [41] was greater than 100 µM and the TGI [42] was greater than 100 µM. The TGI [43] was greater than 100 µM, the TGI [44] was greater than 100 µM and the TGI [45] was greater than 100 µM. For the same compound, the TGI [47] was greater than 100 µM, the TGI [48] was greater than 100 µM and the TGI [49] was greater than 100 µM. The TGI [56] was 72.2 µM, the TGI [50] was 99.7 µM and the TGI [52] was greater than 100 µM. It also gave a TGI [53] greater than 100 µM and a TGI [57] greater than 100 µM.
Compound `O=C1CCC(c2nc3cc(Cl)ccc3o2)C(=O)N1` (stereo not given) has a TGI [1] greater than 100 µM, a TGI [2] greater than 100 µM and a TGI [3] greater than 100 µM. For the same compound, the TGI [4] was greater than 100 µM, the TGI [5] was greater than 100 µM and the TGI [6] was greater than 100 µM. The TGI [7] was greater than 100 µM, the TGI [8] was greater than 100 µM and the TGI [9] was greater than 100 µM. For the same compound, the TGI [10] was greater than 100 µM, the TGI [11] was greater than 100 µM and the TGI [12] was greater than 100 µM. The TGI [13] was greater than 100 µM, the TGI [58] was greater than 100 µM and the TGI [54] was greater than 100 µM. For the same compound, the TGI [14] was greater than 100 µM, the TGI [15] was greater than 100 µM and the TGI [16] was greater than 100 µM. It also gave a TGI [17] greater than 100 µM, a TGI [18] greater than 100 µM and a TGI [19] greater than 100 µM. The TGI [55] was greater than 100 µM, the TGI [20] was greater than 100 µM and the TGI [21] was greater than 100 µM. For the same compound, the TGI [22] was greater than 100 µM, the TGI [23] was greater than 100 µM and the TGI [24] was greater than 100 µM. The TGI [25] was greater than 100 µM, the TGI [26] was greater than 100 µM and the TGI [27] was greater than 100 µM. The TGI [28] was greater than 100 µM, the TGI [29] was greater than 100 µM and the TGI [30] was greater than 100 µM. It also gave a TGI [31] greater than 100 µM, a TGI [33] greater than 100 µM and a TGI [34] greater than 100 µM. The TGI [35] was greater than 100 µM, the TGI [36] was greater than 100 µM and the TGI [37] was greater than 100 µM. The TGI [38] was greater than 100 µM, the TGI [39] was greater than 100 µM and the TGI [40] was greater than 100 µM. The TGI [41] was greater than 100 µM, the TGI [42] was greater than 100 µM and the TGI [43] was greater than 100 µM. It also gave a TGI [44] greater than 100 µM, a TGI [45] greater than 100 µM and a TGI [46] greater than 100 µM. It also gave a TGI [47] greater than 100 µM, a TGI [48] greater than 100 µM and a TGI [49] greater than 100 µM. It also gave a TGI [56] greater than 100 µM, a TGI [50] greater than 100 µM and a TGI [51] greater than 100 µM. It also gave a TGI [52] greater than 100 µM, a TGI [53] greater than 100 µM and a TGI [57] greater than 100 µM.
